What was measured:
wheat [1] = assay: Test C preemergence; type: in vivo, Triticum aestivum
Summary of the method: (§1)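 Scores of 0 (no effect) to 100 (complete control) were assigned by eye after 13–15 days, comparing treated pots with controls. Soil-applied (preemergence) treatments went onto seeds in loam and sand; foliar (postemergence) treatments onto 1- to 4-leaf plants in peat medium.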

sedge, umbrella = assay: Test B flood; type: in vivo, Cyperus difformis; conditions: 250 g ai/ha, visual rating on 0 to 100 scale (0 no effect, 100 complete control), 13 to 15 days
Summary of the method: (§2)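 Visual ratings (0 = no effect, 100 = complete control) versus untreated controls were taken 13–15 days after treatment of greenhouse plants. Treatment was added to paddy water held at 3 cm depth on 2-leaf-stage seedlings.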

kochia = assay: Test C postemergence; type: in vivo, Kochia scoparia; conditions: for Plant response rating (scale of 0 to 100 where 0 is no effect and 100 is complete control), Kochia: Postemergence, 31 g ai/ha, visually evaluated after 13 to 15 days; for Kochia plant response rating / Plant response rating, Kochia: postemergence; for Kochia plant response rating: 62 g ai/ha, scale 0 to 100
Summary of the method: as §1

corn = assay: Test C preemergence; type: in vivo, Zea mays
Summary of the method: as §1

ragweed = assay: Test C preemergence; type: in vivo, Ambrosia elation
Summary of the method: as §1

galium = assay: Test C preemergence; type: in vivo, Galium aparine
Summary of the method: as §1

lambsquarters [2] = assay: Test C postemergence; type: in vivo, Chenopodium album; conditions: for Plant response rating (scale of 0 to 100 where 0 is no effect and 100 is complete control), Lambsquarters: Postemergence, 31 g ai/ha, visually evaluated after 13 to 15 days; for Lambsquarters plant response rating / Plant response rating, Lambsquarters: postemergence; for Lambsquarters plant response rating: 62 g ai/ha, scale 0 to 100
Summary of the method: as §1

ryegrass, Italian = assay: Test C postemergence; type: in vivo, Lolium multiflorum; conditions: postemergence
Summary of the method: as §1

pigweed = assay: Test A preemergence; type: in vivo, Amaranthus retroflexus; conditions: preemergence; for Pigweed plant response rating (0 to 100 scale): 125 g ai/ha, visual injury approx. 10 days after treatment
Summary of the method: (§3)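 Visual injury rating, 0–100 (0 no effect, 100 complete control), vs untreated controls ~10 days after treatment in greenhouse. Pre: directed soil spray on seeded loam/sand. Post: 2–10 cm plants, 1–2 leaf stage. Formulation: non-phytotoxic solvent mix + surfactant.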

wheat [3] = assay: Test A postemergence; type: in vivo, Triticum aestivum; conditions: Postemergence
Summary of the method: as §3

lambsquarters [4] = assay: Test C preemergence; type: in vivo, Chenopodium album
Summary of the method: as §1

rice = assay: Test B flood; type: in vivo, Oryza sativa; conditions: 250 g ai/ha, visual rating on 0 to 100 scale (0 no effect, 100 complete control), 13 to 15 days
Summary of the method: as §2

crabgrass, large = assay: Test C postemergence; type: in vivo, Digitaria sanguinalis; conditions: for Plant response rating (scale of 0 to 100 where 0 is no effect and 100 is complete control), Crabgrass, Large: Postemergence, 31 g ai/ha, visually evaluated after 13 to 15 days; for Crabgrass, Large plant response rating / Plant response rating, Crabgrass, Large: postemergence; for Crabgrass, Large plant response rating: 62 g ai/ha, scale 0 to 100
Summary of the method: as §1

[5] = Preemergence, rate head not shown (block before 16 g ai/ha), scale 0 to 100
[6] = preemergence, 62 g ai/ha, scale 0 to 100 (0 no effect, 100 complete control), 13 to 15 days
[7] = preemergence, 125 g ai/ha, 13 to 15 days, scale 0 to 100, 0 = no effect, 100 = complete control
[8] = preemergence, 250 g ai/ha, scale 0 to 100, 0 is no effect, 100 is complete control
[9] = 250 g ai/ha, scale 0 to 100 (0 no effect, 100 complete control)
[10] = 125 g ai/ha, scale 0 to 100, 0 no effect, 100 complete control
[11] = 125 g ai/ha, 0 to 100 scale, 0 no effect, 100 complete control
[12] = 500 g ai/ha, 0 to 100 scale (0 no effect, 100 complete control)
[13] = preemergence, 31 g ai/ha, visual rating, scale 0 to 100 (0 no effect, 100 complete control), 13 to 15 days

| SMILES | Wheat plant response rating (wheat [1]; [6]) | Plant response rating, Wheat (wheat [1]; [7]) | Wheat plant response rating (wheat [1]; [8]) | Plant response rating, Sedge, Umbrella (sedge, umbrella) | Plant response rating (scale of 0 to 100 where 0 is no effect and 100 is complete control), Kochia (kochia) | Kochia plant response rating (kochia) | Plant response rating, Kochia (kochia; [9]) | Plant response rating, Kochia (kochia; [10]) | Corn plant response rating (corn; [6]) | Plant response rating, Corn (corn; [7]) | Corn plant response rating (corn; [8]) | Ragweed plant response rating (ragweed; [6]) | Plant response rating, Ragweed (ragweed; [7]) | Ragweed plant response rating (ragweed; [8]) | Galium plant response rating (galium; [6]) | Plant response rating, Galium (galium; [7]) | Galium plant response rating (galium; [8]) | Plant response rating (scale of 0 to 100 where 0 is no effect and 100 is complete control), Lambsquarters (lambsquarters [2]) | Lambsquarters plant response rating (lambsquarters [2]) | Plant response rating, Lambsquarters (lambsquarters [2]; [9]) | further results |
| --- | --- | --- | --- | --- | --- | --- | --- | --- | --- | --- | --- | --- | --- | --- | --- | --- | --- | --- | --- | --- | --- |
| CCc1cc(C(=O)NCC(F)(F)F)nn1Cc1ccnc(Br)c1 [Compound 224] | 0 | 10 | 60 | 90 | 80 | 85 | 90 | 90 | 5 | 15 | 60 | 85 | 95 | 100 | 80 | 100 | 90 | 35 | 40 | 60 | Plant response rating, Wheat (wheat [1]; [5]): 0; Plant response rating, Corn (corn; Preemergence, rate head not shown (block before 16 g ai/ha), scale 0 to 100, 100 is complete control): 0; Plant response rating, Ragweed (ragweed; [5]): 85; Plant response rating, Galium (galium; [5]): 80; Plant response rating, Lambsquarters (lambsquarters [2]; [10]): 45; Plant response rating, Ryegrass, Italian (ryegrass, Italian; [9]): 5; Plant response rating, Ryegrass, Italian (ryegrass, Italian; [10]): 5; Pigweed plant response rating (0 to 100 scale) (pigweed): 100; Wheat plant response rating (wheat [3]; [11]): 30; Wheat plant response rating (wheat [3]; [12]): 90; Plant response rating, Lambsquarters (lambsquarters [4]; [5]): 100; Lambsquarters plant response rating (lambsquarters [4]; [6]): 100; Plant response rating, Lambsquarters (lambsquarters [4]; [7]): 100; Lambsquarters plant response rating (lambsquarters [4]; [8]): 100; Plant response rating, Rice (rice): 20; Plant response rating (scale of 0 to 100 where 0 is no effect and 100 is complete control), Crabgrass, Large (crabgrass, large): 5; Crabgrass, Large plant response rating (crabgrass, large): 5; Plant response rating, Crabgrass, Large (crabgrass, large; [9]): 20; Plant response rating, Crabgrass, Large (crabgrass, large; [10]): 5 |
| CCCc1cc(C(=O)NC(C)C)nn1Cc1cc(C(F)(F)F)nn1C [Compound 201] | 85 | 90 | 90 | 95 | 85 | 85 | 90 | 90 | 60 | 70 | 95 | 85 | 95 | 98 | 95 | 98 | 100 | 65 | 80 | 95 | Wheat plant response rating (wheat [1]; [13]): 80; Corn plant response rating (corn; [13]): 40; Ragweed plant response rating (ragweed; [13]): 80; Galium plant response rating (galium; [13]): 95; Plant response rating, Lambsquarters (lambsquarters [2]; [10]): 90; Plant response rating, Ryegrass, Italian (ryegrass, Italian; [9]): 15; Plant response rating, Ryegrass, Italian (ryegrass, Italian; [10]): 5; Pigweed plant response rating (0 to 100 scale) (pigweed): 100; Pigweed plant response rating (pigweed; 500 g ai/ha, visual injury after approx. 10 days, 0 to 100 scale (0 no effect, 100 complete control)): 100; Wheat plant response rating (wheat [3]; [11]): 90; Wheat plant response rating (wheat [3]; [12]): 100; Plant response rating, Rice (rice): 45; Plant response rating (scale of 0 to 100 where 0 is no effect and 100 is complete control), Crabgrass, Large (crabgrass, large): 15; Crabgrass, Large plant response rating (crabgrass, large): 10; Plant response rating, Crabgrass, Large (crabgrass, large; [9]): 50; Plant response rating, Crabgrass, Large (crabgrass, large; [10]): 15 |

— US20150105252A1, “SUBSTITUTED PYRAZOLES AS HERBICIDES” (E I DU PONT DE NEMOURS AND COMPANY, priority 2013, published 2015)
